The structures appear in SMILES notation.

These results are taken from patent US20200260724A1, “METHODS TO FORMULATE NEUTRAL ORGANIC COMPOUNDS WITH POLYMER NANOPARTICLES” (Vive Crop Protection Inc., priority 2010, published 2020).

A short description of series [1]: Viscosity of solutions and dispersions in cP. The series is classed as physicochemical. Particulars: temperature printed per sample, 23.1-26.0° C. The method, then: Solid 2,4-dichlorophenoxyacetic acid (2,4-D) (0.158 g, 0.72 mmol) and fresh deionized water (50 mL) were added to a 100 mL glass beaker, along with a stir bar. The medium was connected to a pH meter and the reading was at 2.76. To the stirring dispersion, aqueous NaOH (10N) was added dropwise. As the pH increased, more solid 2,4-D dissolved the dispersion became more transparent. Eventually, all of the solid 2,4-D dissolved completely, and the solution appeared transparent. The pH and viscosity of the solution was measured at 10.76 and 0.93 cP at 25.4° C. For the reference, the viscosity of pure water was measured using the same instrument and shown a value of 0.92 cP at 26.4° C.

Series [2] can be described thus: Pyrene fluorescent probe of nanoparticle microenvironment (I1/I3 ratio). The series is classed as physicochemical. Particulars: pyrene emission, excitation 340 nm.
Text: The intensity ratio of the first and third vibronic bands (I1/I3) in the emission spectra of the pyrene monomer is very sensitive to the monomer's microenvironment, and can be used as a metric to gauge the hydrophobic nature of different polymer nanoparticles produced using the methods described in this patent.
The pyrene microenvironments from different polymer nanoparticles were probed for the following nanoparticles: Na^+-collapsed polyacrylic acid (Na-PAA), ZnO/polyacrylic nanoparticles (ZnO-PAA), Zn^2+-collapsed nanoparticles (Zn-PAA), Na^+-collapsed PMAA nanoparticles (Na-PMAA), Na^+-collapsed P(MAA-co-EA) nanoparticles (Na—P(MAA-EA), poly(vinyl pyrollidone)-collapsed polyacrylic acid nanoparticles (PVP/PAA). Aqueous pyrene-nanoparticle solutions were prepared as follows. 1.0 mg pyrene was dissolved in 10 mL discholormethane and was used as the stock pyrene solution (0.1 mg/mL). To prepare the aqueous pyrene-nanoparticle solutions, 10 micro liters of the stock pyrene solution was added to a 20 mL scintillation vial and was allowed to air dry in a fume hood for one hour. 80 mg of solid nanoparticles or polymer, 10 g of deionized water and a magnetic stir bar were then added to the vial. […] Emission spectra were measured on a Perkin Elmer LS 55 Luminescence Spectrometer using an excitation wavelength of 340 nm, having slit widths for both excitation and emission at 2.5 nm. […]

Consider `O=C(O)COc1ccc(Cl)cc1Cl` [2,4-D, 2,4-dichlorophenoxyacetic acid], for which, in series [1], the “Viscosity of solution or nanoparticle dispersion” value is 0.93 cP.

As to `c1cc2ccc3cccc4ccc(c1)c2c34` [Pyrene - control, pyrene], the I1/I3 ratio in series [2] (pH 6-8) was 1.68; in series [2] (pH 8-10), 1.70.
